Data as given in paper PMC12029992, “Beyond-Rule-of-Five Compounds Are Not Different: In Vitro–In Vivo Extrapolation of Female CD-1 Mouse Clearance Based on Merck Healthcare KGaA Compound Set” (Pharmaceuticals, 2025).

Experiments:
[1] = Unbound fraction in the hepatocyte incubation (fu,hep) by rapid equilibrium dialysis; type: in vitro ADME, mouse; conditions: for fu,hep: experimental unbound fraction in hepatocyte incubation
Procedure: (§1) The free fraction in mouse plasma, in the microsome incubation, and in the hepatocyte incubation was determined using rapid equilibrium dialysis (RED) in Teflon-coated 96-well RED devices. Test compounds were added as DMSO stocks to the donor matrix at 0.5 µM (final DMSO concentration of 0.5%) and dialyzed against phosphate buffer (70 mM, pH 7.4) in the receiver compartment for 4 h at 37 °C.
(§2) The donor matrices differed for the various unbound fractions. […] Mouse serum was dialyzed overnight to exchange the carbonate with a phosphate buffer and was then used as a donor matrix in the experiment (50% serum in 70 mM phosphate buffer, pH 7.4). For fu,mic, human liver microsomes were used as a surrogate for mouse microsomes as a donor matrix in the experiment (0.8 mg protein/mL in 70 mM phosphate buffer, pH 7.4). For fu,hep, mouse hepatocytes were inactivated by incubating overnight at room temperature and then used as a donor matrix in the experiment (0.2 million cells/mL in 70 mM phosphate buffer, pH 7.4).
(§3) Samples were taken from both compartments after 4 h of incubation and analyzed via UHPLC-MS/MS. The unbound fraction, fu, was calculated as follows: fu=creceiver/cdonor
(§4) The fu values were interconverted from one matrix concentration to another using the following formula: fu2=fu1/M2/M1−fu1·M2/M1−1 where fu2 at matrix concentration M2 can be calculated from the fu1 value at matrix concentration M1.
(§5) The recovery was calculated to check the mass balance after the experiment by adding the total compound levels in both the donor and receiver compartments.

female CD-1 mouse [2] = test: IVIVE of mouse clearance from microsomes (well-stirred model, regression correction); conditions: for Fold obs. / pred. (mic.) CL,b,u - Kilford / in vitro (mic.) pred. CLint,b - Kilford / in vitro (mic.) pred. CLint,b,u - Kilford: Kilford fu,mic
Source text: (§6) Compounds with phase II metabolism were removed from the microsome set (N = 25). […] The following regression equations were derived for microsomes and hepatocytes, respectively: log predicted CLint = 0.8 * log scaled CLint + 0.6 and log predicted CLint = 0.6 * log scaled CLint + 0.8, with CLint expressed in mL/min/kg.
(§7) According to Sohlenius-Sternbeck et al., the following equations were used for IVIVE: scaled CLint,b=in vitro CLint∗microsomes/hepatocytes/gram of liver∗liver weight/body weight∗fu,p/fu,inc∗Rb
(§8) The physiological scaling factors, taken from Simcyp^TM version 13/1 (Certara), were 48 mg of microsomal protein per gram of liver (MPPGL), 101.7 × 10^6 hepatocytes per gram of liver (HPGL), a liver weight of 1.46 g, and a body weight of 0.025 kg. For microsomes and hepatocytes, fu,mic and fu,hep, were used as the unbound fraction in the incubation (fu,inc), respectively. predicted CLint,b=10^(log scaled CLint∗slope+intercept)
(§9) For microsomes, a slope of 0.8 and an intercept of 0.6 were used, and for hepatocytes, a slope of 0.6 and an intercept of 0.8, according to the regression equations derived above. predicted CL,b=pred. CLint,b∗QH/pred. Clint,b+QH
(§10) CLp/Rb observed CLint,b=QH∗obs. CL,b/QH−obs. CL,b
(§11) All unbound clearance terms were calculated by dividing the respective clearance by fu,p. predicted/observed CL,b,u=pred./obs. CL,b/fu,p
(§12) The above-described approach was applied for the IVIVE of clearance of the data set analyzed in this study. Additionally, in order to evaluate the impact of the Kilford calculations as a surrogate for the experimentally determined free fraction in the in vitro systems, clearance was extrapolated using the Kilford equations [16] using the same regression coefficients.

[3] = Unbound fraction in the microsome incubation (fu,mic) by rapid equilibrium dialysis; type: in vitro ADME, human; conditions: for fu,mic: experimental unbound fraction in microsome incubation
Procedure: as §1, §2, §3, §4, §5

female CD-1 mouse [4] = test: IVIVE of mouse clearance from hepatocytes (well-stirred model, regression correction); conditions: for Fold obs. / pred. (hep.) CL,b,u - Kilford / in vitro (hep.) pred. CLint,b - Kilford / in vitro (hep.) pred. CLint,b,u - Kilford: Kilford fu,hep
Source text: as §6, §7, §8, §9, §10, §11, §12

[5] = Determination of CLint in mouse microsomes (microsomal stability); type: in vitro ADME; conditions: female CD-1 mouse microsomes
Procedure: Microsomal stability was assessed on a liquid handling platform (Tecan Freedom EVO-2 200 MCA384, Männedorf, Switzerland) using pooled female CD-1 mouse microsomes. Compounds (1 µM final) were pre-incubated with microsomes (final 0.5 mg/mL) for 5 min at 37 °C in phosphate buffer (50 mM, pH 7.4), which was followed by the start of the incubation by the addition of cofactor NADPH (final 1.5 mM). […] Incubations were carried out in singlicate. Aliquots were taken at time points of 0, 5, 10, 20, and 30 min. Additionally, two control samples (0 and 30 min) lacking the addition of NADPH were included in order to flag compounds with non-microsomal metabolism. After incubation, the samples were quenched by adding sample aliquots from four different compound incubations to a two-fold volume of acetonitrile (ACN) for bioanalytical cocktailing designed to avoid analytical interference. After centrifugation, the supernatants were analyzed by a standard reversed-phase liquid chromatography assay coupled to tandem mass spectrometry (UHPLC-MS/MS) (for details, see the Supplementary Materials).
The data were subjected to post-acquisition analysis by the Analyst software (version 1.7.2), and the percentage of compound remaining (defined as the ratio of the peak area at a given time point and that at the 0 min time point) was plotted against the incubation time. The first-order elimination rate constant (kel) was derived by non-linear regression using Biorails version 5.10.22/Morphit version 8.0 (The Edge Software Consultancy, Guildford, UK), and CLint values (expressed in µL/min/mg) were obtained by normalizing kel with the microsome concentration.

female CD-1 mouse [6] = test: Pharmacokinetic studies in mice (IV clearance); type: in vivo; conditions: for in vivo obs. CL,b: blood clearance; for in vivo obs. CLint,b: blood intrinsic clearance; for in vivo obs. CLint,b,u: unbound blood intrinsic clearance
Procedure: Pharmacokinetic studies were carried out after approval by the internal animal welfare board and in compliance with the local and international animal welfare regulations similarly to a method described previously. Generally, three or twelve CD-1 mice per study were dosed intravenously (0.2–1 mg/kg) using solution vehicles, predominantly 40% PEG 200 in 1% DMSO. For the majority of the studies, blood samples were taken retro-orbitally under inhalation of anesthesia (0.1, 0.5, 1, 2, 4, 6, and 24 h). For the remaining studies, blood sampling was performed both retro-orbitally (0.1, 0.5, 1, 2, and 24 h) and from the saphenous vein (4 and 6 h) (N = 51), from the dorsal metatarsal vein (N = 34), or submandibularly (N = 12). Plasma was obtained by centrifugation (10,000× g; 4 °C; 5 min) and stored at −20 °C until UHPLC-MS/MS analysis. By the addition of an ACN solution containing internal standard, the proteins were precipitated and dissevered by centrifugation. The concentration of the respective molecules studied was determined by a standard UHPLC-MS/MS method (generic method similar to the method described for the determination of CLint using experimentally determined compound MS tuning parameters). Plasma concentrations were determined for each time point sampled. Clearance was estimated from the AUC by non-compartmental analysis, which was performed using WinNonlin® (Princeton, NJ, USA). The geometric mean was used when more than one clearance value from different studies was available.
as §10, §11

[7] = microsomes, experimental fu,mic
[8] = hepatocytes, experimental fu,hep
[9] = recovery in equilibrium dialysis

fu,hep [1] [%]	fu,hep recovery ([1]; recovery in fu,hep dialysis) [%]	Fold obs. / pred. (mic.) CL,b,u - Kilford (female CD-1 mouse [2]; microsomes)	in vitro (mic.) pred. CLint,b - Kilford (female CD-1 mouse [2]; microsomes) [mL/min/kg]	in vitro (mic.) pred. CLint,b,u - Kilford (female CD-1 mouse [2]; microsomes) [mL/min/kg]	Fold obs. / pred. (mic.) CL,b,u - exp. fu,mic (female CD-1 mouse [2]; [7])	in vitro (mic.) pred. CLint,b - exp. fu,mic (female CD-1 mouse [2]; [7]) [mL/min/kg]	in vitro (mic.) pred. CLint,b,u - exp. fu,mic (female CD-1 mouse [2]; [7]) [mL/min/kg]	fu,mic [3] [%]	fu,mic recovery ([3]; recovery in fu,mic dialysis) [%]	Fold obs. / pred. (hep.) CL,b,u - Kilford (female CD-1 mouse [4]; hepatocytes)	in vitro (hep.) pred. CLint,b - Kilford (female CD-1 mouse [4]; hepatocytes) [mL/min/kg]	in vitro (hep.) pred. CLint,b,u - Kilford (female CD-1 mouse [4]; hepatocytes) [mL/min/kg]	Fold obs. / pred. (hep.) CL,b,u - exp. fu,hep (female CD-1 mouse [4]; [8])	in vitro (hep.) pred. CLint,b - exp. fu,hep (female CD-1 mouse [4]; [8]) [mL/min/kg]	in vitro (hep.) pred. CLint,b,u - exp. fu,hep (female CD-1 mouse [4]; [8]) [mL/min/kg]	Microsome CLint [5] [µL/min/mg]	in vivo obs. CL,b (female CD-1 mouse [6]) [mL/min/kg]	in vivo obs. CLint,b (female CD-1 mouse [6]) [mL/min/kg]	in vivo obs. CLint,b,u (female CD-1 mouse [6]) [mL/min/kg]	Structure (SMILES)	also measured
97.45	232	0.5	5.69	334.02	0.5	5.96	349.34	91.70	98	0.3	9.82	576.00	0.3	9.94	582.73	17.8	2.83	2.91	170.57	O=C(O)c1cc(-c2ccc(F)cc2F)ccc1O [MSC001]	
100.00	80	0.528	13.72	179.53	0.5	14.24	186.35	87.21	98	0.356	21.81	285.43	0.36	21.48	281.21	20.5	6.38	6.81	89.15	CNC(=O)c1cc(Oc2ccc3nc(N[C@@H]4CCCC[C@H]4O)sc3c2)ccn1 [MSC003]	
91.30	50	1.3	148.30	772.42	1.1	214.87	1119.12	58.66	61	1.5	99.13	516.30	1.5	103.91	541.18	165.3	77.00	317.36	1652.94	COc1cccc(OCCCN)c1-c1cc(Nc2cnc(C#N)cn2)n[nH]1 [MSC020]	
87.81		1.7						35.01		1.4						212.8	63.61	169.91	3658.76	N#Cc1c[nH]c2c(C(=O)N3CCN(CCc4ccc(F)cc4)CC3)cccc12 [MSC213]	fu,hep recovery [1, 9]: 136%; in vitro (mic.) pred. CLint,b - Kilford (female CD-1 mouse [2]; from microsomes): 59.38 mL/min/kg; in vitro (mic.) pred. CLint,b,u - Kilford (female CD-1 mouse [2]; from microsomes): 1278.61 mL/min/kg; in vitro (mic.) pred. CLint,b - exp. fu,mic (female CD-1 mouse [2]; from microsomes, exp. fu,mic): 127.90 mL/min/kg; in vitro (mic.) pred. CLint,b,u - exp. fu,mic (female CD-1 mouse [2]; from microsomes, exp. fu,mic): 2754.05 mL/min/kg; Fold obs. / pred. (mic.) CL,b,u - exp. fu,mic (female CD-1 mouse [2]; microsomes, exp. fu,mic): 1.1; fu,mic recovery [3, 9]: 87%; in vitro (hep.) pred. CLint,b - Kilford (female CD-1 mouse [4]; from hepatocytes): 83.55 mL/min/kg; in vitro (hep.) pred. CLint,b,u - Kilford (female CD-1 mouse [4]; from hepatocytes): 1799.14 mL/min/kg; in vitro (hep.) pred. CLint,b - exp. fu,hep (female CD-1 mouse [4]; from hepatocytes, exp. fu,hep): 89.51 mL/min/kg; in vitro (hep.) pred. CLint,b,u - exp. fu,hep (female CD-1 mouse [4]; from hepatocytes, exp. fu,hep): 1927.40 mL/min/kg; Fold obs. / pred. (hep.) CL,b,u - exp. fu,hep (female CD-1 mouse [4]; hepatocytes, exp. fu,hep): 1.3
